Measured values from ChEMBL document CHEMBL1201862, “PubChem BioAssay data set” (2004).
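How tested: cells in 96-well plates exposed to compound for 48 hours at five concentrations. GI50 = concentration required for 50% inhibition of growth.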 Active and inactive are the calls of the source. Cut-off read from the data, not from the text of the source: active = GI50 up to about 1.1 µM and inactive = higher.

How the values were obtained:
Assay in all cases: NCI anticancer screen, dose series, 48 h
786-0 = system: 786-0
A498 = system: A498
A549 = system: A549
ACHN = system: ACHN
BT-549 = system: BT-549
CAKI-1 = system: CAKI-1
CCRF-CEM = system: CCRF-CEM
COLO 205 = system: COLO 205
DLD-1 = system: DLD-1
DMS-114 = system: DMS-114
DMS-273 = system: DMS-273
DU-145 = system: DU-145
EKVX = system: EKVX
HCC 2998 = system: HCC 2998
HCT-116 = system: HCT-116
HCT-15 = system: HCT-15
HL-60 = system: HL-60
HOP-18 = system: HOP-18
HOP-62 = system: HOP-62
HOP-92 = system: HOP-92
HT-29 = system: HT-29
Hs-578T = system: Hs-578T
IGROV-1 = system: IGROV-1
K562 = system: K562
KM-20L2 = system: KM-20L2
KM12 = system: KM12
LOX IMVI = system: LOX IMVI
LXFL 529 = system: LXFL 529
M14 = system: M14
M19-MEL = system: M19-MEL
MCF7 = system: MCF7
MDA-MB-231 = system: MDA-MB-231
MDA-N = system: MDA-N
MOLT-4 = system: MOLT-4
Malme-3M = system: Malme-3M
NCI-H226 = system: NCI-H226
NCI-H23 = system: NCI-H23
NCI-H460 = system: NCI-H460
NCI-H522 = system: NCI-H522
OVCAR-3 = system: OVCAR-3
OVCAR-4 = system: OVCAR-4
OVCAR-5 = system: OVCAR-5
OVCAR-8 = system: OVCAR-8
PC-3 = system: PC-3
RPMI-8226 = system: RPMI-8226
RXF 393 = system: RXF 393
RXF 631 = system: RXF 631
SF-268 = system: SF-268
SF-295 = system: SF-295
SF-539 = system: SF-539
SK-MEL-28 = system: SK-MEL-28
SK-MEL-2 = system: SK-MEL-2
SK-MEL-5 = system: SK-MEL-5
SK-OV-3 = system: SK-OV-3
SN12C = system: SN12C
SNB-19 = system: SNB-19
SNB-75 = system: SNB-75
SNB-78 = system: SNB-78
SR = system: SR
SW-620 = system: SW-620
T47D = system: T47D
TK-10 = system: TK-10
U-251 = system: U-251
UACC-257 = system: UACC-257
UACC-62 = system: UACC-62
UO-31 = system: UO-31
XF498 = system: XF498

In the case of `O=[N+]([O-])c1ccc(C2CC(c3ccccc3Cl)=Nc3ccccc3[S+]2[O-])cc1` (configuration not stated), the GI50 (786-0) is reported as 1.8 µM (inactive), the GI50 (A498) is reported as 2.34 µM (inactive) and the GI50 (A549) is reported as 9.64 µM (inactive). The GI50 (ACHN) was 2.01 µM (inactive), the GI50 (BT-549) was 13.7 µM (inactive) and the GI50 (CAKI-1) was 2.48 µM (inactive). For the same compound, the GI50 (CCRF-CEM) was 1.48 µM (inactive), the GI50 (COLO 205) was 7.69 µM (inactive) and the GI50 (DLD-1) was 2.06 µM (inactive). The GI50 (DMS-114) was 2.05 µM (inactive), the GI50 (DMS-273) was 2.95 µM (inactive) and the GI50 (DU-145) was 15.5 µM (inactive). For the same compound, the GI50 (EKVX) was 15 µM (inactive), the GI50 (HCC 2998) was 2.92 µM (inactive) and the GI50 (HCT-116) was 1.88 µM (inactive). For the same compound, the GI50 (HCT-15) was 2.21 µM, the GI50 (HL-60) was 1.19 µM (inactive) and the GI50 (HOP-18) was 14.1 µM (inactive). For the same compound, the GI50 (HOP-62) was 7.19 µM (inactive), the GI50 (HOP-92) was 15.3 µM (inactive) and the GI50 (HT-29) was 2.5 µM (inactive). For the same compound, the GI50 (Hs-578T) was 2.75 µM (inactive), the GI50 (IGROV-1) was 2.77 µM (inactive) and the GI50 (K562) was 1.37 µM (inactive). For the same compound, the GI50 (KM-20L2) was 2.59 µM (inactive), the GI50 (KM12) was 3.82 µM (inactive) and the GI50 (LOX IMVI) was 2.07 µM (inactive). The GI50 (LXFL 529) was 1.79 µM (inactive), the GI50 (M14) was 5.71 µM (inactive) and the GI50 (M19-MEL) was 2.77 µM (inactive). The GI50 (MCF7) was 2.34 µM (inactive), the GI50 (MDA-MB-231) was 2.29 µM (inactive) and the GI50 (MDA-N) was 9.51 µM (inactive). The GI50 (MOLT-4) was 1.9 µM (inactive), the GI50 (Malme-3M) was 9.91 µM (inactive) and the GI50 (NCI-H226) was 5.86 µM (inactive). The GI50 (NCI-H23) was 4.13 µM (inactive), the GI50 (NCI-H460) was 4.27 µM (inactive) and the GI50 (NCI-H522) was 1.15 µM (inactive). For the same compound, the GI50 (OVCAR-3) was 3.48 µM (inactive), the GI50 (OVCAR-4) was 2.31 µM (inactive) and the GI50 (OVCAR-5) was 3.71 µM (inactive). For the same compound, the GI50 (OVCAR-8) was 2.87 µM (inactive), the GI50 (PC-3) was 4.67 µM (inactive) and the GI50 (RPMI-8226) was 1.77 µM (inactive). For the same compound, the GI50 (RXF 393) was 1.8 µM (inactive), the GI50 (RXF 631) was 5.27 µM (inactive) and the GI50 (SF-268) was 8.83 µM (inactive). The GI50 (SF-295) was 5.55 µM (inactive), the GI50 (SF-539) was 7.19 µM (inactive) and the GI50 (SK-MEL-28) was 5.18 µM (inactive). The GI50 (SK-MEL-2) was 15 µM (inactive), the GI50 (SK-MEL-5) was 5.41 µM (inactive) and the GI50 (SK-OV-3) was 19.8 µM (inactive). The GI50 (SN12C) was 2.26 µM (inactive), the GI50 (SNB-19) was 3.63 µM (inactive) and the GI50 (SNB-75) was 5.55 µM (inactive). For the same compound, the GI50 (SNB-78) was 13.1 µM (inactive), the GI50 (SR) was 2.84 µM (inactive) and the GI50 (SW-620) was 1.98 µM (inactive). The GI50 (T47D) was 12.8 µM (inactive), the GI50 (TK-10) was 8.02 µM (inactive) and the GI50 (U-251) was 3.05 µM (inactive). For the same compound, the GI50 (UACC-257) was 15.8 µM (inactive), the GI50 (UACC-62) was 2.69 µM (inactive) and the GI50 (UO-31) was 2.06 µM (inactive). For the same compound, the GI50 (XF498) was 5.89 µM (inactive).
